# Measured values as given in patent US20210137850A1, “DIAGNOSIS & TREATMENT OF ERCC3-MUTANT CANCER” (MEMORIAL SLOAN KETTERING CANCER CENTER, priority 2017, published 2021).
# Experiments:
# [1] = system: γ-H2AX in HMLE control and ERCC3 CRISPR edited cell lines; format: cell-based, human; settings: 8 ng/ml IlludinS for 1 h; ERCC3 CRISPR mutants vs wild type, P<0.05
# Method: To assess the induction and removal of phosphorylated H2AX in response to DNA damage we performed immunostaining and flow cytometric analysis of γ-H2AX positive cells following treatment with IlludinS.
# For flow cytometric analysis, 24 h after seeding, cells were either left untreated or were treated with 8 ng/ml IlludinS for 1 h. Treated cells were subsequently washed with PBS and supplemented with drug-free medium. The cells were harvested at different time points after treatment and fixed with 4% PFA for 10 min at RT. Cells were quickly chilled on ice and ice-cold MeOH was added to a final concentration of 90%. The cells were incubated on ice for 30 min and stored at −20° C. For immunostaining the cells were washed twice with PBS/0.5% BSA and incubated with anti phospho-Histone H2A.X (Ser139) Antibody (1:250; Cell Signaling Technology) for 1 h at RT, washed again and incubated with Alexa-488 conjugated secondary antibody for 45 min at RT. For each condition 20.000 cells were recorded and data from two replicate experiments was analyzed using the FlowJo software (V10.1).
# [2] = system: XPCS2BA cells stably overexpressing ERCC3 R109X; assay: Cell viability after IlludinS, cells overexpressing the ERCC3 R109X mutant (CellTiter-Glo); format: cell-based, human
# Method: (§1) To understand whether this variant has a deleterious effect on the gene function, we carried out a series of in vitro functional assays. Using a previously well characterized ERCC3 deficient cell line derived from an XP/CS patient (7), phenotype rescue after DNA damage was assessed by cell viability assay. […] Similarly, following UVC irradiation at a dose of 10 J/m^2, 72 hours post-exposure, 42% of the R109X cells survived compared to 63% of WT cells (P<0.0001). At a dose of […], these numbers reduced more drastically for the mutant, showing the same trend as the IlludinS exposure experiment. (FIG. 2D).
# (§2) For viability assessment following treatment with IlludinS (Cayman Chemical), cells were seeded into 96 well plates 24 hours prior to treatment. For post-UV viability assays, cells were exposed to the appropriate doses of UV irradiation and subsequently seeded into 96 well plates. Cell viability was measured after 72 hours using the CellTiter-Glo® Luminescent Cell Viability Assay (Promega).
# [3] = system: CRISPR edited HMLE cell lines (ERCC3 heterozygous mutants); assay: Cell viability after IlludinS, CRISPR/Cas9 edited ERCC3 heterozygous mutant cells; format: cell-based, human
# Method: (§3) Overexpression of ERCC3 mutant constructs […] physiological levels of protein in a germline heterozygous mutation state within cells. Therefore, using CRISPR/Cas9, we engineered several heterozygous mutations in the mammary epithelial cell line HMLE that mimic the site of the originally discovered recurrent mutation in breast cancer individuals (Table 3, FIG. 4).
# as §2
# [4] = system: XPCS2BA cells stably overexpressing ERCC3 WT; assay: Cell viability after IlludinS, cells overexpressing wild-type ERCC3 (CellTiter-Glo); format: cell-based, human
# Method: as §1, §2
# [5] = system: XPCS2BA parental cell line; assay: Cell viability after IlludinS, parental ERCC3-deficient cell line (CellTiter-Glo); format: cell-based, human
# Method: as §1, §2
# [6] = system: parental HMLE cells; assay: Cell viability after IlludinS, parental mammary epithelial cells; format: cell-based, human; settings: 2 ng/ml IlludinS, 72 hours
# Method: as §3, §2
# [7] = system: HMLE+/R109X cells vs HMLE+/+ cells; assay: Cell viability after Irofulven, ERCC3 WT vs R109X heterozygous HMLE cells; format: cell-based, human; settings: 72 hours, increasing doses
# Method: as §2
# (§4) In vitro experiments were performed to compare the effects of Irofulven on cell viability of ERCC3 WT HMLE cells and CRISPR-edited HMLE cells heterozygous for the ERCC3 R109X mutation. These same cell lines were used in Example 1 to assess sensitivity to IlludinS. Cell viability was assessed 72 hours following treatment of the cells with increasing doses of Irofulven. FIG. 11A provides the results in graphical form. Similar experiments were also performed using cells similar to those described above (i.e. that were either ERCC3 WT or R109X) but that also stably expressed mutant hRAS-V12. (These hRAS-V12 cells were used for xenograft generation in the in vivo experiments described below). FIG. 11B provides results showing the effects of Irofulven on cell viability of the +/+WT H-RAS-V12 HMLE cells the heterozygous+/−R109X H-RAS-V12 HMLE cells. The data shown in both FIG. 11A and FIG. 11B represents the mean of three experiments with error bars representing the SEM.
# [8] = system: ERCC3 expression in ERCC3 mutant tumors; assay: Real time PCR of ERCC3 transcript in xenograft tumors; format: in vivo, athymic nude mice; settings: two treatment cycles of Irofulven
# [9] = system: R109X H-RAS-V12 HMLE cells vs WT H-RAS-V12 HMLE cells; assay: Cell viability after Irofulven, hRAS-V12 expressing ERCC3 WT vs R109X HMLE cells; format: cell-based, human; settings: 72 hours, increasing doses, hRAS-V12 HMLE R109X heterozygous
# Method: as §2, §4
# [10] = system: ERCC3 R109X HMLE HRAS-V12 tumors; assay: Mouse xenograft model, ERCC3 R109X mutant tumors; format: in vivo, athymic nude mice
# Method: (§5) To assess the effect of the ERCC3 R109X mutation on Irolfulven sensitivity in vivo, a tumor xenograft system was generated and used. As described above, ERCC3 WT and ERCC3-mutant (R109X) cells were made in an HMLE HRAS-V12 background. These cells were injected into the flanks of athymic nude mice. The resultant tumors were allowed to grow to a size of about 100 mm^3. Treatment was then started. Either a vehicle control or Irofulven (at a dose of either 3.5 mg/kg or 7 mg/kg) was injected intraperitoneally (IP) daily for 5 consecutive days (the treatment “on” time), followed by a period of 16 days of treatment “off” time—making one 21-day cycle. Treatment cycles were then repeated. This treatment regimen was similar to that employed in several reported human clinical trials of Irofulven. The size of the tumors was measured weekly. […] In the ERCC3 WT xenograft group the average tumor size at treatment initiation was 97.7 mm^3 (74.6-120.3 mm^3). In the ERCC3 R109X xenograft group the average tumor size at treatment initiation was 172.8 mm^3 (101.8-238.6 mm^3). […] Additional experiments are underway to further validate these preliminary findings.
# [11] = system: ERCC3 WT HMLE HRAS-V12 tumors; assay: Mouse xenograft model, ERCC3 WT tumors; format: in vivo, athymic nude mice; settings: 3.5 mg/kg or 7 mg/kg IP daily for 5 days per 21-day cycle
# Method: as §5
SMILES,reduction in γ-H2AX after DNA damage [1],"cells survived ([2]; 2 ng/ml IlludinS, 72 hours, R109X overexpressing XPCS2BA)","cell death compared to ERCC3 WT ([2]; increasing doses of IlludinS, R109X overexpressing cells)","cell survival ([3]; 2 ng/ml IlludinS, 72 hours, CRISPR edited HMLE, P<0.0001)","relative cell viability ([3]; 72 hours after exposure to IlludinS, ERCC3 CRISPR clones)",response to IlludinS after stable overexpression of WT ERCC3 (rescue) ([3]; ERCC3 CRISPR cell lines re-expressing WT ERCC3),"cells survived ([4]; 2 ng/ml IlludinS, 72 hours)",cell survival ([4]; 4 ng/ml IlludinS),"cells survived ([5]; 2 ng/ml IlludinS, 72 hours, XPCS2BA)","cell death ([5]; higher doses of IlludinS, untransfected cells)",cell survival [6],sensitivity to Irofulven (inhibition of cell viability) vs ERCC3 WT cells [7],ERCC3 expression (relative transcript level) [8],sensitivity to Irofulven (inhibition of cell viability) vs ERCC3 WT cells [9],tumor growth ([10]; 3.5 mg/kg or 7 mg/kg IP daily for 5 days per 21-day cycle),sensitivity to tumor inhibitory effects compared to ERCC3 WT tumors ([10]; preliminary studies),tumor growth [11]
"CC1=C2C(=C[C@@](C)(CO)[C@@H]2O)C(=O)[C@](C)(O)C12CC2 [IlludinS, Illudin S]",significantly lower,42%,significantly higher cell death,significantly reduced survival,substantial reduction in relative cell viability,same response to IlludinS as the WT HMLE cell line,77%,most of the WT cells survived,3%,all died,all the parental HMLE cells survived,,,,,,
"CC1=C(CO)C2=C(C)C3(CC3)[C@@](C)(O)C(=O)C2=C1 [Irofulven, 6-hydroxymethylacylfulvene]",,,,,,,,,,,,much more sensitive,upregulated,much more sensitive,significant reduction,may have been more sensitive,significant reduction
